Consider 1 molecule from patent publication US9132108B2, “Pharmaceutical composition for ameliorating and/or preventing leptin resistance, and use thereof” (HIROSHIMA UNIVERSITY, priority 2009, dated 2015).

Structures are written as SMILES.

Type in all cases: in vivo, mouse
The test system of data set [1] is mice given high-fat diet (leptin resistance). Briefly: Body weight of mice given high-fat or normal diet with flurbiprofen for 8 weeks (Example 1). The settings on record: approximately 10 mg/kg per day orally in drinking water. Here is the method: In the Examples, 4 weeks-old male mice (C57BL/6 Cr Slc, SHIMIZU Laboratory Supplies Co., Ltd.) were used as laboratory animals. All the animal tests in the Examples were carried out according to the NIH Guide for Care and Use of Laboratory Animals.
Mice were divided into four groups each consisting of 7-8 mice. Mice of individual groups were given diets as follows. • Group 1: Normal diet (10 kcal % fat, D12450B, produced by Research Diets, Inc.) only • Group 2: High-fat diet (60 kcal % fat, D12492, produced by Research Diets, Inc.) only • Group 3: Normal diet+flurbiprofen (F8514, produced by SIGMA) • Group 4: High-fat diet+flurbiprofen (F8514, produced by SIGMA)
Flurbiprofen was diluted with drinking water so that the administration amount of flurbiprofen would be approximately 10 mg/kg per day, and was orally administered to the mice in the form of drinking water. Thereafter, the mice were weighed every 7 days.
FIG. 3 is a graph showing changes in body weights of the mice of individual groups during 8 weeks after flurbiprofen administration. Values in the graph of FIG. 3 are averages of body weights of mice of each group (± their standard deviations) (n=7-8 with respect to each group). Further, statistic analysis was carried out using t-test.

Data set [2] has as its system mice. In words: Open Field Test, amounts of mice activity (Example 6). As to conditions: Group 3 or 4 (flurbiprofen) vs Group 1 or 2 (no flurbiprofen); 10 mg/kg per day orally, 8 weeks. Here is the method:
In order to measure the amounts of mice activity, an Open Field Test was carried out. Specifically, 4 weeks-old male mice (C57BL/6 Cr Slc) were divided into four groups each consisting of 15-16 mice. Mice of individual groups were given diets as follows for 8 weeks similarly with Example 5. • Group 1: Normal diet (10 kcal % fat) only • Group 2: High-fat diet (60 kcal % fat) only • Group 3: Normal diet+flurbiprofen • Group 4: High-fat diet+flurbiprofen
Flurbiprofen (F8514, produced by SIGMA) was diluted with drinking water so that the administration amount of flurbiprofen would be 10 mg/kg per day, and was orally administered to the mice in the form of drinking water.
The mice raised for 8 weeks with high-fat diet or normal diet were subjected to the Open Field Test.
The Open Field Test is a test in which mice were put at the center of a square field (48×48 cm) and the amounts of activity of the mice in the new environment were measured in numerals. Specifically, with respect to each of the mice, the amount of activity per 5 minutes was measured using a locomotor activity measuring device (SCANET MV-10MT, produced by Toyo Sangyo Co., Ltd.). The measurements were performed between 16:30 and 17:30 which was a time before feeding behavior of the mice would become active. […]

Data set [3] relates to mice given high-fat diet for 6 months (leptin resistance). Briefly: Body weight of leptin-resistant mice (6 months high-fat diet), therapeutic effect (Example 8). As to conditions: 3 mg/kg per day orally. From the text:
In Example 8, effectiveness of flurbiprofen in ameliorating leptin resistance was confirmed by measuring a change in body weight of mice as a reference index. Specifically, 4 weeks-old male mice (C57BL/6 Cr Slc) had been given high-fat diet for 6 months so that leptin resistance would be induced in the mice. Thereafter, the mice were divided into two groups (each consisting of 14 mice), and the mice of individual groups were given the following diets for 3 weeks. • Control group (Cont): normal diet (10 kcal % fat) only • Flurbiprofen-administered group (Ful): normal diet+flurbiprofen Flurbiprofen (F8514, produced by SIGMA) was diluted with drinking water so that the administration amount of flurbiprofen would be 3 mg/kg per day, and was orally administered to the mice in the form of drinking water. The rates of change in body weight of the mice of individual groups were measured with the date when administration of flurbiprofen started (0 week) as a reference. Further, the amount of visceral fat (g) was measured. The visceral fat was extracted from abdomens of the mice and wet weight thereof was measured. FIGS. 13 and 14 show the result. FIG. 13 is a graph showing the rates of change in body weight of the mice of the control group and the mice of the flurbiprofen-administered group. […]

Data set [4] has as its system mice. In words: Body length of mice after flurbiprofen administration (Example 10). As to conditions: flurbiprofen-administered group vs control group; 3 mg/kg per day orally, 3 weeks. Here is the method:
Similarly with Example 8, 4 weeks-old male mice (C57BL/6 Cr Slc) had been given high-fat diet for 6 months so that leptin resistance would be induced in the mice. Thereafter, the mice were divided into two groups (each consisting of 8 mice), and the mice of individual groups were given the following diets for 3 weeks. • Control group (Cont): normal diet (10 kcal % fat) only • Flurbiprofen-administered group (Ful): normal diet+flurbiprofen Flurbiprofen (F8514, produced by SIGMA) was diluted with drinking water so that the administration amount of flurbiprofen would be 3 mg/kg per day, and was orally administered to the mice in the form of drinking water. The result of measurement of body length of the mice, to which flurbiprofen had been administered for 3 weeks, is shown in FIG. 16. FIG. 16 is a graph showing the body length (cm) of the mice of the control group and the mice of the flurbiprofen-administered group which had been given normal diet for 3 weeks. Values in the graph of FIG. 16 are averages of body lengths (cm) of mice of each group (± their standard deviations) (n=8 with respect to each group). Further, statistic analysis was carried out using t-test.

Data set [5] concerns mice. In words: Amount of mice water intake (Example 12). As to conditions: 10 mg/kg per day orally in drinking water; normal or high-fat diet. Here is the method: In order to measure the amount of mice water intake, 4 weeks-old male mice (C57BL/6 Cr Slc) were divided into four groups (each consisting of 7-8 mice), were isolated from one another so that there would be one mouse per cage. The mice were then habituated for 2 days. The amount of mice water intake was measured every 24 hours for 4 days from the forenoon on the second day of the habituation, and the amount of mice water intake for 4 days was summed up. • Group 1: Normal diet (10 kcal % fat) only • Group 2: High-fat diet (60 kcal % fat) only • Group 3: Normal diet+flurbiprofen • Group 4: High-fat diet+flurbiprofen Flurbiprofen (F8514, produced by SIGMA) was diluted with drinking water so that the administration amount of flurbiprofen would be 10 mg/kg per day, and was orally administered to the mice in the form of drinking water. FIG. 18 is a graph showing the result of the measurement of the amount of mice water intake. Values in the graph of FIG. 18 are averages of the total amounts (g) of water intake of mice of each group for 4 days (± their standard deviations) (n=7-8 with respect to each group). Further, statistic analysis was carried out using t-test.

Take `C[C@@H](C(=O)O)c1ccc(-c2ccccc2)c(F)c1` [flurbiprofen]: the body weight entry in data set [1] (Group 3 (normal diet+flurbiprofen) vs Group 1 (normal diet only)) is “no significant difference in body weight”; in data set [1] (Group 4 (high-fat diet+flurbiprofen) vs Group 2 (high-fat diet only), significance level <5%), “prevented an increase in body weight”. The “amounts of activity (locomotor activity, counts/5 min)” value in the data set with mice [2] is on record as “no significant difference in the amounts of activity”. In addition, the “time after administration at which the effect of ameliorating leptin resistance is observed” value in data set [3] (rate of change in body weight vs control group) stood at 1 week. The molecule further gave an average body weight in data set [3] (3 weeks after the administration of flurbiprofen, normal diet after 6 months high-fat diet, before administration 53.479±0.7804 g, control 48.371±0.6387 g, P<0.05) of 45.543 ± 1.1103 g. The body length result in the data set with mice [4] is reported as “no significant difference in body length”. In addition, in the data set with mice [5], the “total amount of water intake for 4 days” value was “constant regardless of whether flurbiprofen was administered or not”.
